{"source": "patent US11447472B2", "about": "“Polymorophs of 5-aza-4′-thio-2′-deoxycytidine” (Southern Research Institute, priority 2020, dated 2022)", "type_in_all_cases": "physicochemical", "key": {"[1]": {"assay": "Stability tests at 5° C.: mother liquors and solid phases of suspensions, HPLC", "conditions": "for chemical stability (purity over time) / purity decreased over time to: 5° C.; for chemical stability (purity over time): 70 hours; for purity decreased over time to: about 70 hours, area %", "description": "Additional stability tests were performed at 5° C. Suspensions of the starting material were prepared in water, acetonitrile, ethanol (EtOH), and isopropanol. The mother liquors of the suspensions and the water solution were analyzed by HPLC at regular intervals over 3 days.\nThe solid phases from the suspensions were also evaluated for purity after 72 h. […] Therefore, the aza-T-dCyd appeared chemically stable in the solid phase after 70-hour incubation at 5° C."}, "[2]": {"assay": "Thermodynamic solubility, shake-flask method", "conditions": "for solubility at 24 h: organic solvent or mixture, thermodynamic from solid, RT", "description": "The thermodynamic solubility of aza-T-dCyd was determined according to the shake-flask method. Suspensions of the crystalline aza-T-dCyd were prepared in 25 neat solvents. Small aliquots of solvent were added to the aza-T-dCyd until thin suspensions were obtained. Subsequently, the samples were equilibrated at RT under continuous stirring for 24 hours. After equilibration, a small aliquot of mother liquor was filtered and analyzed by HPLC. The concentration of the solute was determined against a calibration curve of the aza-T-dCyd. The solubility values of aza-T-dCyd at room temperature are listed in Table 3 according to the US Pharmacopeia's classification (USP29). The aza-T-dCyd was soluble in high boiling point solvents such as DMF and DMA. Generally, aza-T-dCyd was slightly or very slightly soluble in polar solvents and practically insoluble in non-polar solvents."}, "[3]": {"assay": "Chemical stability of aza-T-dCyd in solutions (RT, 50° C., 80° C.), HPLC", "conditions": "for purity in solution (chemical stability): RT for 24 h, and 50° C. or 80° C. for 1 hour, HPLC", "description": "The chemical stability of aza-T-dCyd was determined. Aza-T-dCyd was prepared in 1,4-dioxane, acetonitrile (ACN), isopropanol (IPA), and methyl ethyl ketone. Each solution was divided over 3 vials and incubated at RT for 24 hours, at 50° C. for 1 hour, or at 80° C. for 1 hour. The solutions were analyzed by HPLC at the start and after the incubation time."}}}
{"smiles": "Nc1ncn([C@H]2C[C@H](O)[C@@H](CO)S2)c(=O)n1", "note": "[aza-T-dCyd, 5-Aza-4′-thio-2′-deoxycytidine]", "values": [{"measurement": "chemical stability (purity over time)", "setting": "[1]; IPA, mother liquor", "result": "remained stable"}, {"measurement": "purity decreased over time to", "setting": "[1]; acetonitrile, mother liquor", "result": 84, "unit": "%"}, {"measurement": "chemical stability (purity over time)", "setting": "[1]; ethanol, mother liquor", "result": "remained stable"}, {"measurement": "Purity of Aza-T-dCYd after 72 h at 5° C.", "setting": "[1]; solid phase from ACN suspension", "result": 98.8, "unit": "area %"}, {"measurement": "Purity of Aza-T-dCYd after 72 h at 5° C.", "setting": "[1]; solid phase from EtOH suspension", "result": 99.8, "unit": "area %"}, {"measurement": "Purity of Aza-T-dCYd after 72 h at 5° C.", "setting": "[1]; solid phase from IPA suspension", "result": 99.4, "unit": "area %"}, {"measurement": "purity of solids recovered from the suspensions", "setting": "[1]; solid phases from the four solvents after 72 h at 5° C.", "result": "about 99 % (area %)"}, {"measurement": "purity decreased over time to", "setting": "[1]; water solution", "result": 78, "unit": "%"}, {"measurement": "USP29 class.", "setting": "[2]; 2,2,2,-trifluoroethanol, Methanol (rows r7-r8), class wraps over two lines: Slightly Soluble", "result": "Slightly"}, {"measurement": "USP29 class.", "setting": "[2]; Anisole to Toluene (rows r20-r33), class wraps over two lines: Practically insoluble", "result": "Practically"}, {"measurement": "USP29 class.", "setting": "[2]; Dimethylformamide, N,N-dimethylacetamide (rows r5-r6)", "result": "Soluble"}, {"measurement": "USP29 class.", "setting": "[2]; Ethanol to 1,2-dimethoxyethane (rows r9-r19), class wraps over three lines: Very Slightly Soluble", "result": "Very"}, {"measurement": "solubility at 24 h", "setting": "[2]; 1,2-dimethoxyethane", "result": 0.1, "unit": "mg/mL"}, {"measurement": "solubility at 24 h", "setting": "[2]; 1,4-dioxane", "result": 0.3, "unit": "mg/mL"}, {"measurement": "solubility at 24 h", "setting": "[2]; 1-propanol", "result": 0.4, "unit": "mg/mL"}, {"measurement": "solubility at 24 h", "setting": "[2]; 2,2,2,-trifluoroethanol", "result": 4.1, "unit": "mg/mL"}, {"measurement": "solubility at 24 h", "setting": "[2]; 2-butanol", "result": 0.3, "unit": "mg/mL"}, {"measurement": "solubility at 24 h", "setting": "[2]; 2-methyltetrahydrofuran", "result": 0.1, "unit": "mg/mL"}, {"measurement": "solubility at 24 h", "setting": "[2]; 2-propanol", "result": 0.4, "unit": "mg/mL"}, {"measurement": "solubility at 24 h", "setting": "[2]; 4-methyl-2-pentanone", "result": 0.1, "unit": "mg/mL"}, {"measurement": "solubility at 24 h", "setting": "[2]; Acetone", "result": 0.2, "unit": "mg/mL"}, {"measurement": "solubility at 24 h", "setting": "[2]; Acetonitrile", "result": 0.1, "unit": "mg/mL"}, {"measurement": "solubility at 24 h", "setting": "[2]; Anisole", "result": "< 0.1", "unit": "mg/mL"}, {"measurement": "solubility at 24 h", "setting": "[2]; Chloroform", "result": "< 0.1", "unit": "mg/mL"}, {"measurement": "solubility at 24 h", "setting": "[2]; Cumene", "result": "< 0.1", "unit": "mg/mL"}, {"measurement": "solubility at 24 h", "setting": "[2]; Cyclohexane", "result": "< 0.1", "unit": "mg/mL"}, {"measurement": "solubility at 24 h", "setting": "[2]; Dichloromethane", "result": "< 0.1", "unit": "mg/mL"}, {"measurement": "solubility at 24 h", "setting": "[2]; Diethyl ether", "result": "< 0.1", "unit": "mg/mL"}, {"measurement": "solubility at 24 h", "setting": "[2]; Dimethylformamide", "result": 65.8, "unit": "mg/mL"}, {"measurement": "solubility at 24 h", "setting": "[2]; Ethanol", "result": 0.8, "unit": "mg/mL"}, {"measurement": "solubility at 24 h", "setting": "[2]; Ethyl acetate", "result": "< 0.1", "unit": "mg/mL"}, {"measurement": "solubility at 24 h", "setting": "[2]; Ethyl formate", "result": "< 0.1", "unit": "mg/mL"}, {"measurement": "solubility at 24 h", "setting": "[2]; Heptane", "result": "< 0.1", "unit": "mg/mL"}, {"measurement": "solubility at 24 h", "setting": "[2]; Isopropyl acetate", "result": "< 0.1", "unit": "mg/mL"}, {"measurement": "solubility at 24 h", "setting": "[2]; Methanol", "result": 3.6, "unit": "mg/mL"}, {"measurement": "solubility at 24 h", "setting": "[2]; Methyl ethyl ketone", "result": "< 0.1", "unit": "mg/mL"}, {"measurement": "solubility at 24 h", "setting": "[2]; N,N-dimethylacetamide", "result": 60, "unit": "mg/mL"}, {"measurement": "solubility at 24 h", "setting": "[2]; Tetrahydrofuran", "result": 0.1, "unit": "mg/mL"}, {"measurement": "solubility at 24 h", "setting": "[2]; Toluene", "result": "< 0.1", "unit": "mg/mL"}, {"measurement": "solubility at 24 h", "setting": "[2]; p-Xylene", "result": "< 0.1", "unit": "mg/mL"}, {"measurement": "solubility at 24 h", "setting": "[2]; tert-butyl methyl ether", "result": "< 0.1", "unit": "mg/mL"}, {"measurement": "purity in solution (chemical stability)", "setting": "[3]; 1,4-dioxane", "result": "> 95", "unit": "%"}, {"measurement": "chemical stability in solution", "setting": "[3]; IPA, heated at 80° C. (1 hour) or stored at RT for 24 h", "result": "degraded significantly"}, {"measurement": "purity in solution (chemical stability)", "setting": "[3]; acetonitrile", "result": "> 95", "unit": "%"}, {"measurement": "chemical stability in solution", "setting": "[3]; methyl ethyl ketone, 1 hour at 50° C. and 80° C., 24 hour at RT", "result": "significant decomposition"}]}
